Assay results from PMC13227277, “Targeting CIRP and IL-6R-mediated microglial inflammation to improve outcomes in intracerebral hemorrhage” (Journal of Advanced Research, 2025).
Where two headings read alike, the source gives them in different places. No end group written: not given here.

What was measured:
microglia [1] = test: CCK-8 microglial viability; format: cell-based, mouse
Text: (§1) Primary cortical neurons were isolated from embryonic day 16–18 (E16–E18) C57BL/6 mouse embryos as previously described, and cultured in Neurobasal medium supplemented with B27 and GlutaMAX (Gibco).Primary microglial cells were isolated from the cortices of neonatal (day 1) C57BL/6J mice. After disinfection with 75 % ethanol, the skin and skull were removed, and the brains were placed in ice-cold HBSS. The meninges were peeled off, the cortex was collected, and the hippocampus was discarded. Tissues were digested with 0.25 % trypsin at 37 °C for 12 min, centrifuged at 1200 rpm for 5 min, and resuspended in complete medium. The suspension was transferred to a T75 flask with 15 mL of complete medium. After 14 days, microglial cells were harvested by shaking the flask at 270–280 rpm for 30 min, and the supernatant was collected. To induce phenotyping, microglial cells were treated with LPS (100 ng/mL) and IFN-γ (20 ng/mL) for 48 h to induce the M1 phenotype, or IL-4 (20 ng/mL) for 48 h to induce the M2 phenotype. […]
Microglia were exposed to 1, 10 100 μM concentrations of TCC or TC and PBS respectively for 24 h, and cell viability was measured. […] Cell viability was assessed using the Cell Counting Kit-8 (C0038, Beyotime) according to the manufacturer’s protocol. Absorbance at 450 nm was measured to determine cell viability.

[2] = in the brain following ICH, increased BBB permeability
microglia [3] = test: IL-6 release from CIRP-stimulated microglia, ELISA (TCC vs TC); format: cell-based, mouse; conditions: peptides 10 μM pre-treated 0.5 h, then rmCIRP 1 μg/mL 24 h, n = 3
Protocol: To validate the effects of TCC and TC in vitro, microglial cells were pre-treated with the peptides (10 μM) for 0.5 h, followed by stimulation with recombinant mouse CIRP (rmCIRP, 1 μg/mL) for 24 h to establish an inflammation model.
ELISA was used to quantify CIRP, MD2, IL-6, and TNF-α concentrations in blood and cerebrospinal fluid samples. Samples were processed and stored under standardized conditions to preserve protein integrity. Each target protein was measured using commercial ELISA kits, following the manufacturer’s instructions: Mouse CIRBP ELISA Kit (CSB-EL005440MO, CUSABIO), Mouse TNF-α ELISA Kit (EK282, Lianke Bio), Mouse IL-6 ELISA Kit (CSB-E04639m, CUSABIO), and Rat TNF-α ELISA Kit (EK382, Lianke Bio).
After disinfection with 75 % ethanol, the skin and skull were removed, and the brains were placed in ice-cold HBSS. The meninges were peeled off, the cortex was collected, and the hippocampus was discarded. Tissues were digested with 0.25 % trypsin at 37 °C for 12 min, centrifuged at 1200 rpm for 5 min, and resuspended in complete medium. The suspension was transferred to a T75 flask with 15 mL of complete medium. After 14 days, microglial cells were harvested by shaking the flask at 270–280 rpm for 30 min, and the supernatant was collected. […] CIRP (1 μg/mL for 24 h) was added to the microglia, which were divided into PBS, CIRP, and CIRP + TCC groups. […]

microglia [4] = test: Microglial phagocytosis of CFSE-labeled RBCs; format: cell-based, mouse; conditions: rmCIRP 24 h, then CFSE-labeled erythrocytes
Text: as §1, with “collected.” for “collected. To induce phenotyping, microglial cells were treated with LPS (100 ng/mL) and IFN-γ (20 ng/mL) for 48 h to induce the M1 phenotype, or IL-4 (20 ng/mL) for 48 h to induce the M2 phenotype.”
The functional characteristics of microglial cells encompass not only the release of inflammatory cytokines but also their phagocytic activity. […] RBCs were labeled with either 0.5 μM or 5 μM CFSE, and immunofluorescence analysis determined that 5 μM CFSE was the optimal concentration for labeling (Fig. 7G). […]
RBCs were isolated via density gradient centrifugation and labeled with CFSE before being stereotactically injected into the right striatum. […] Cell viability was assessed using a Fixable Viability Dye, and flow cytometric analysis was subsequently performed. […]

[5] = molecular target: T1, recombinant human IL-6 receptor alpha (IL-6Rα) (human, UniProt P08887 20-365); test: SPR; human IL-6Rα immobilised on a CM5 chip; human CIRBP or TCC as analyte; conditions: both partners purified
T1 construct: Interleukin-6 receptor subunit alpha, human; UniProtKB P08887 is printed for the docking; also called rhIL-6Rα; rhIL-6R; source: recombinant
T1 sequence (looked up): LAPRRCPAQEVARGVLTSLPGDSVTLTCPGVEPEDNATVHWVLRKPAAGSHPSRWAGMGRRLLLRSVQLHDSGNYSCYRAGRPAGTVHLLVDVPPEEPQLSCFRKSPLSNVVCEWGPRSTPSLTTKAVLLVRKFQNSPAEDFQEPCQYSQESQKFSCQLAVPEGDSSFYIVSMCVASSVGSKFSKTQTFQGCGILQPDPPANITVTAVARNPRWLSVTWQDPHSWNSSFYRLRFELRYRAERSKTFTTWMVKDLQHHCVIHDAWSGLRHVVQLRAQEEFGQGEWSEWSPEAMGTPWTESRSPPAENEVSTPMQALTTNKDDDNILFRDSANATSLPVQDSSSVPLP

Molecule: YGRKKRRQRRRGRGFSRGGGDRGYGGKFERQKILDQRFFE [TCC]
- microglial viability (microglia [1]; 10 μM, 24 h, CCK-8, n = 3): did not affect microglial viability
- ability to cross the BBB [2]: effectively traverse the BBB

Molecule: YGRKKRRQRRRRFESRSGGYGGSRD [TC]
- microglial viability (microglia [1]): did not affect microglial viability
- IL-6 release in culture supernatants (microglia [3]): reduced IL-6 release

B1: rmCIRP: recombinant mouse CIRP (rmCIRP, 1 μg/mL) (protein, UniProt P60824 1-172, looked up)
Cold-inducible RNA-binding …: MASDEGKLFVGGLSFDTNEQALEQVFSKYGQISEVVVVKDRETQRSRGFGFVTFENIDDAKDAMMAMNGKSVDGRQIRVDQAGKSSDNRSRGYRGGSAGGRGFFRGGRSRGRGFSRGGGDRGYGGGRFESRSGGYGGSRDYYASRSQGGSYGYRSSGGSYRDSYDSYATHNE
- phagocytosis of RBCs, Cirbp^−/− vs WT microglia (microglia [4]): greater capacity to phagocytize CFSE-labeled erythrocytes compared to WT microglia

B2: Tat-CIRP-CMA peptide (peptide)
peptide: YGRKKRRQRRRGRGFSRGGGDRGYGGKFERQKILDQRFFE
notes: also called TCC; source: synthetic peptide (Heifei KS-V Peptide Biotechnology, China)
- Kd [5]: 4.12 nM
